# Measured values taken from PMC4706877, “Antibacterial and Cytotoxic Activity of Compounds Isolated from Flourensia oolepis” (Evidence-based Complementary and Alternative Medicine : eCAM, 2015).
# Where two headings read alike, the source gives them in different places.
# Tested on: CCRF-CEM acute lymphoblastic leukemia cells
# Experiment: MTT cell proliferation assay
# Type: cell-based, human
# Conditions: for IC50: CCRF-CEM, MTT, 72 h, read-out: IC50 values and 95% confidence limits (lower, upper)
# Protocol: The HEK293T non-tumor derived cell line and human isolated mononuclear cells (PBMC) were also tested. […] Cells were cultured at 37°C in a 5% CO2 humidified environment.
# To investigate the cytotoxic potential of the isolated compounds, the MTT colorimetric assay was performed. […] The compounds were evaluated at a final maximum concentration of 100 μM. After 72 hours, 20 μL of 5 mg/mL solution of MTT in sterile PBS was added to each well and further incubated for 4 h. Then, the supernatants were removed and replaced with 100 μL DMSO to solubilize the resulting purple formazan crystals produced from metabolically viable cells. Absorbance was measured with an iMark micro-plate reader (Bio-Rad, USA) at 595 nm. Two wells were used for each concentration of the products assayed and three independent experiments were performed. […] The percentage of cytotoxic activity of the assayed compounds was determined by the following formula: cytotoxicity (%) = [1 − (optical density of treated cells − optical density DMSO)/(optical density of ethanol control cells − optical density DMSO)] × 100.
# Data were analyzed by one-way analysis of variance (ANOVA) and means were compared using Bonferroni's comparison test, with p ≤ 0.05 considered as statistically significant.
compound,measurement,setting,value
"O=C(/C=C/c1ccccc1)c1ccc(O)cc1O [Compound 1, 2′,4′-dihydroxychalcone]",IC50,,6.6 µM
same,IC50,Homo sapiens,< 10 µM
same,selectivity index (SI),IC50 HEK293T / IC50 CCRF-CEM,10.1
same,selectivity index (SI),IC50 PBMC / IC50 CCRF-CEM,12.5
